Source: US20120283100A1, “CONTROLLING PLANTHOPPERS” (priority 2011, published 2012)
Several values for one entry are separate records, joined by “and”; a condition that tells them apart may be missing. Identical values can stand only once.

System: brown planthoppers, Nilaparvata lugens
Assay: Field efficacy on brown planthopper in transplanted rice (small-plot trials A-D)
Type: in vivo
Details: Sulfoxaflor 50 g/ha, Chlorpyrifos 500 g/ha, mixture 50 + 500 g/ha; for % Control: Trial A
Experimental: Applications were made to transplanted rice, Oryza sativa, using standard small-plot efficacy methods. Chemicals were diluted in water and all treatments were applied using a backpack sprayer calibrated to deliver 500 liters of spray per hectare. Experimental plots measured 5 by 10 meters and each treatment was replicated three times in each trial. At the specified intervals after treatment, brown planthoppers, Nilaparvata lugens, were counted in 10 randomly selected hills per plot. Data were transformed to percent control relative to the untreated plots, then subjected to analysis of variance, and means were separated using Tukey's HSD (p=0.1). Expected control was calculated using the method of Colby and compared to observed control. See the Table Section for the results of the Field Trials.

SMILES | % Control (1 DAT, relative to untreated plots) | % Control (3 DAT) | % Control (7 DAT) | % Control (10 DAT) | % Control (15 DAT) | % Control at DAT (Trial B, 1 DAT) | % Control at DAT (Trial B, 3 DAT) | % Control at DAT (Trial B, 7 DAT) | % Control at DAT (Trial B, 10 DAT) | % Control at DAT (Trial B, 15 DAT) | % Control at DAT (Trial C, 1 DAT) | % Control at DAT (Trial C, 3 DAT) | % Control at DAT (Trial C, 7 DAT) | % Control at DAT (Trial C, 10 DAT) | % Control at DAT (Trial C, 15 DAT) | % Control at DAT (Trial D, 1 DAT) | % Control at DAT (Trial D, 7 DAT) | % Control at DAT (Trial D, 10 DAT) | % Control at DAT (Trial D, 15 DAT)
CCOP(=S)(OCC)Oc1nc(Cl)c(Cl)cc1Cl [Chlorpyrifos] | 13.7 bc % and 13.7% | 37.5 b % and 37.5% | 32.4 b % and 32.4% | 7.8 b % and 7.8% | 21.0 b % and 21% | 45.2 ab % and 45.2% | 64.8 b % and 64.8% | 54.0 b % and 54% | 39.8 b % and 39.8% | 57.8 b % and 57.8% | 53.4 ab % and 53.4% | 67.0 b % and 67% | 59.7 b % and 59.7% | 10.5 b % and 10.5% | 37.9 b % and 37.9% | 59.6 c % and 59.6% | 53.8 c % and 53.8% | 18.2 c % and 18.2% | 27.0 c % and 27%
CC(c1ccc(C(F)(F)F)nc1)S(C)(=O)=NC#N (stereo not drawn) [Sulfoxaflor] |  |  |  | 6.8% |  |  |  |  | 48.2% |  |  |  |  |  |  |  |  |  | 
